Source: PubChem BioAssay AID1919017 (Molecular Pharmacology Branch, DTP, NCI, 2023)

Tested on: SW1271 complex spheroids with HUVEC/MSC, growth, % test/control
Experiment: Anticancer human tumor SW1271 cell line growth inhibition [AhR];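 note: spheroids exposed to agents for 7 days before readout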
Settings: for IC50: curve of first compound; for viability, T/C: stronger effect = lower value
How it was run: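 Complex tumor spheroids co-cultured with HUVEC and human MSC stroma; AhR antagonists tested in combination with standard-of-care and investigational agents. Top concentration at or near clinical Cmax (else 10 microM), half-log dilutions; growth expressed as percent test/control.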

[1] = second compound 0.1 µM, first compound 0.0316 µM
[2] = second compound 0.1 µM, first compound 0.1 µM
[3] = second compound 0.1 µM, first compound 0.316 µM
[4] = second compound 0.1 µM, first compound 1 µM
[5] = second compound 0.1 µM, first compound 3.16 µM
[6] = second compound 0.1 µM, first compound 10 µM
[7] = second compound 0.316 µM, first compound 0.0316 µM
[8] = second compound 0.316 µM, first compound 0.1 µM
[9] = second compound 0.316 µM, first compound 0.316 µM
[10] = second compound 0.316 µM, first compound 1 µM
[11] = second compound 0.316 µM, first compound 3.16 µM
[12] = second compound 0.316 µM, first compound 10 µM
[13] = second compound 1 µM, first compound 0.0316 µM
[14] = second compound 1 µM, first compound 0.1 µM
[15] = second compound 1 µM, first compound 0.316 µM
[16] = second compound 1 µM, first compound 1 µM
[17] = second compound 1 µM, first compound 3.16 µM
[18] = second compound 1 µM, first compound 10 µM
[19] = second compound 3.16 µM, first compound 0.0316 µM
[20] = second compound 3.16 µM, first compound 0.1 µM
[21] = second compound 3.16 µM, first compound 0.316 µM
[22] = second compound 3.16 µM, first compound 1 µM
[23] = second compound 3.16 µM, first compound 3.16 µM
[24] = second compound 3.16 µM, first compound 10 µM
[25] = second compound 10 µM, first compound 0.0316 µM
[26] = second compound 10 µM, first compound 0.1 µM
[27] = second compound 10 µM, first compound 0.316 µM
[28] = second compound 10 µM, first compound 1 µM
[29] = second compound 10 µM, first compound 3.16 µM
[30] = second compound 10 µM, first compound 10 µM
[31] = second compound 0.1 µM, first compound 0.00316 µM
[32] = second compound 0.1 µM, first compound 0.01 µM
[33] = second compound 0.316 µM, first compound 0.00316 µM
[34] = second compound 0.316 µM, first compound 0.01 µM
[35] = second compound 1 µM, first compound 0.00316 µM
[36] = second compound 1 µM, first compound 0.01 µM
[37] = second compound 3.16 µM, first compound 0.00316 µM
[38] = second compound 3.16 µM, first compound 0.01 µM
[39] = second compound 10 µM, first compound 0.00316 µM
[40] = second compound 10 µM, first compound 0.01 µM

Compound	IC50 (second compound 0.1 µM) [nM]	IC50 (second compound 0.316 µM) [nM]	IC50 (second compound 1 µM) [nM]	IC50 (second compound 3.16 µM) [nM]	IC50 (second compound 10 µM) [nM]	viability, T/C [1] [%]	viability, T/C [2] [%]	viability, T/C [3] [%]	viability, T/C [4] [%]	viability, T/C [7] [%]	viability, T/C [8] [%]	viability, T/C [9] [%]	viability, T/C [10] [%]	viability, T/C [13] [%]	viability, T/C [14] [%]	viability, T/C [15] [%]	viability, T/C [19] [%]	viability, T/C [20] [%]	viability, T/C [25] [%]	viability, T/C [26] [%]	other results
CC(C)c1c(-c2ccccc2)nc2c(C#N)c[nH]n2c1=O + CC(CO)NC(=O)c1cc(-c2ccc(Cl)cc2)nn(-c2cnn(C)c2)c1=O	> 10000	> 10000	> 10000	> 10000	> 10000	88.4	101	106	90.9	88.7	85.3	91.4	98.1	78.7	89.9	86.4	95.7	97.8	71.8	80.8	viability, T/C [5]: 95.7%; viability, T/C [6]: 121%; viability, T/C [11]: 93.8%; viability, T/C [12]: 108%; viability, T/C [16]: 78.7%; viability, T/C [17]: 107%; viability, T/C [18]: 94.8%; viability, T/C [21]: 80.1%; viability, T/C [22]: 78%; viability, T/C [23]: 82.8%; viability, T/C [24]: 76.8%; viability, T/C [27]: 67.8%; viability, T/C [28]: 71.3%; viability, T/C [29]: 62.9%; viability, T/C [30]: 77.8%
CC[C@@]1(O)C(=O)OCc2c1cc1n(c2=O)Cc2cc3c(CN(C)C)c(O)ccc3nc2-1 + Cc1ccccc1N=Nc1ccc(NC(=O)c2ccnn2C)c(C)c1	> 100	> 100	> 100	> 100	> 100	57.5	53.1	–	–	69.2	63.9	–	–	63.8	57.3	–	78.2	67.4	60.8	65.5	viability, T/C (second compound 0.1 µM, first compound 0.000316 µM): 81.8%; viability, T/C (second compound 0.1 µM, first compound 0.001 µM): 98.9%; viability, T/C [31]: 69.4%; viability, T/C [32]: 67.8%; viability, T/C (second compound 0.316 µM, first compound 0.000316 µM): 89.4%; viability, T/C (second compound 0.316 µM, first compound 0.001 µM): 92%; viability, T/C [33]: 79.9%; viability, T/C [34]: 65.8%; viability, T/C (second compound 1 µM, first compound 0.000316 µM): 77.9%; viability, T/C (second compound 1 µM, first compound 0.001 µM): 83.4%; viability, T/C [35]: 88%; viability, T/C [36]: 80%; viability, T/C (second compound 3.16 µM, first compound 0.000316 µM): 84.5%; viability, T/C (second compound 3.16 µM, first compound 0.001 µM): 86.4%; viability, T/C [37]: 88.7%; viability, T/C [38]: 68.2%; viability, T/C (second compound 10 µM, first compound 0.000316 µM): 86.7%; viability, T/C (second compound 10 µM, first compound 0.001 µM): 83%; viability, T/C [39]: 87.2%; viability, T/C [40]: 62.1%
COc1cc(C2c3cc4c(cc3C(OC3OC5COC(C)OC5C(O)C3O)C3COC(=O)C23)OCO4)cc(OC)c1O (stereo not given) + Cc1ccccc1N=Nc1ccc(NC(=O)c2ccnn2C)c(C)c1	266	267	419	1580	1020	75.4	58.1	44.1	50.4	54.1	53.9	51.9	46.1	88.8	67.5	49.6	66.8	80.4	62	61.7	viability, T/C [5]: 46.9%; viability, T/C [6]: 45.6%; viability, T/C [11]: 40.4%; viability, T/C [12]: 44.7%; viability, T/C [16]: 44.1%; viability, T/C [17]: 47.4%; viability, T/C [18]: 35.3%; viability, T/C [21]: 53.1%; viability, T/C [22]: 49.4%; viability, T/C [23]: 51.2%; viability, T/C [24]: 34%; viability, T/C [27]: 54%; viability, T/C [28]: 50.2%; viability, T/C [29]: 43.8%; viability, T/C [30]: 37.2%
COc1cccc2c1C(=O)c1c(O)c3c(c(O)c1C2=O)CC(O)(C(=O)CO)CC3OC1CC(N)C(O)C(C)O1 (stereo not given) + Cc1ccccc1N=Nc1ccc(NC(=O)c2ccnn2C)c(C)c1	< 31.6	< 31.6	152	115	128	39.7	52.7	32.5	3	52.6	45.9	34.7	2.92	56.4	58.8	36.6	54.6	49.7	57.6	50.4	viability, T/C [5]: 3.18%; viability, T/C [6]: 2.71%; viability, T/C [11]: 2.63%; viability, T/C [12]: 3.51%; viability, T/C [16]: 3.45%; viability, T/C [17]: 3.18%; viability, T/C [18]: 4.18%; viability, T/C [21]: 34.9%; viability, T/C [22]: 2.56%; viability, T/C [23]: 3.52%; viability, T/C [24]: 3.41%; viability, T/C [27]: 35.4%; viability, T/C [28]: 1.26%; viability, T/C [29]: 3.22%; viability, T/C [30]: 3.53%
Nc1ccn(C2OC(CO)C(O)C2(F)F)c(=O)n1 (stereo not given) + Cc1ccccc1N=Nc1ccc(NC(=O)c2ccnn2C)c(C)c1	< 31.6	66.1	< 31.6	< 31.6	335	39.2	48.4	47.2	52.8	54.6	49.8	41.8	39.5	41.1	50.1	56.7	43.2	51	56.5	57.3	viability, T/C [5]: 41.3%; viability, T/C [6]: 37.2%; viability, T/C [11]: 39%; viability, T/C [12]: 45.1%; viability, T/C [16]: 41.5%; viability, T/C [17]: 45.6%; viability, T/C [18]: 40.3%; viability, T/C [21]: 40.7%; viability, T/C [22]: 44.2%; viability, T/C [23]: 39.7%; viability, T/C [24]: 48.5%; viability, T/C [27]: 50.2%; viability, T/C [28]: 43.1%; viability, T/C [29]: 44.7%; viability, T/C [30]: 50.4%
Nc1ncn(C2CC(O)C(CO)O2)c(=O)n1 (stereo not given) + Cc1ccccc1N=Nc1ccc(NC(=O)c2ccnn2C)c(C)c1	> 1000	> 1000	> 1000	> 1000	> 1000	64.3	60.1	63	49.4	69	76.1	72	59.6	72.7	62.9	75.4	79.9	63.7	66.1	71.5	viability, T/C [31]: 81.5%; viability, T/C [32]: 86.8%; viability, T/C [33]: 82.2%; viability, T/C [34]: 66.9%; viability, T/C [35]: 79.8%; viability, T/C [36]: 71.3%; viability, T/C [16]: 60.2%; viability, T/C [37]: 72.7%; viability, T/C [38]: 83.2%; viability, T/C [21]: 64.1%; viability, T/C [22]: 59%; viability, T/C [39]: 76.1%; viability, T/C [40]: 65.5%; viability, T/C [27]: 65%; viability, T/C [28]: 69.9%
